Results taken from patent US20240308995A1, “O-GLYCOPROTEIN-2-ACETAMIDO-2-DEOXY-3-D-GLUCOPYRANOSIDASE INHIBITORS” (BIOGEN MA INC., priority 2018, published 2024).
Read-outs that look alike come from different tables or passages of the source. Marks after values point to notes of the source that are not given here.

What was measured:
[1] = molecular target: OGA (S400 O-GLCNAC), HEK-293T cells transfected with Tau-V5 (Homo sapiens (Human), UniProt O60502); experiment: Cellular OGA-Tau MSD Assay; format: cell-based
OGA (S400 O-GLCNAC), HEK-293T cells transfected with Tau-V5, sequence (O60502 whole entry): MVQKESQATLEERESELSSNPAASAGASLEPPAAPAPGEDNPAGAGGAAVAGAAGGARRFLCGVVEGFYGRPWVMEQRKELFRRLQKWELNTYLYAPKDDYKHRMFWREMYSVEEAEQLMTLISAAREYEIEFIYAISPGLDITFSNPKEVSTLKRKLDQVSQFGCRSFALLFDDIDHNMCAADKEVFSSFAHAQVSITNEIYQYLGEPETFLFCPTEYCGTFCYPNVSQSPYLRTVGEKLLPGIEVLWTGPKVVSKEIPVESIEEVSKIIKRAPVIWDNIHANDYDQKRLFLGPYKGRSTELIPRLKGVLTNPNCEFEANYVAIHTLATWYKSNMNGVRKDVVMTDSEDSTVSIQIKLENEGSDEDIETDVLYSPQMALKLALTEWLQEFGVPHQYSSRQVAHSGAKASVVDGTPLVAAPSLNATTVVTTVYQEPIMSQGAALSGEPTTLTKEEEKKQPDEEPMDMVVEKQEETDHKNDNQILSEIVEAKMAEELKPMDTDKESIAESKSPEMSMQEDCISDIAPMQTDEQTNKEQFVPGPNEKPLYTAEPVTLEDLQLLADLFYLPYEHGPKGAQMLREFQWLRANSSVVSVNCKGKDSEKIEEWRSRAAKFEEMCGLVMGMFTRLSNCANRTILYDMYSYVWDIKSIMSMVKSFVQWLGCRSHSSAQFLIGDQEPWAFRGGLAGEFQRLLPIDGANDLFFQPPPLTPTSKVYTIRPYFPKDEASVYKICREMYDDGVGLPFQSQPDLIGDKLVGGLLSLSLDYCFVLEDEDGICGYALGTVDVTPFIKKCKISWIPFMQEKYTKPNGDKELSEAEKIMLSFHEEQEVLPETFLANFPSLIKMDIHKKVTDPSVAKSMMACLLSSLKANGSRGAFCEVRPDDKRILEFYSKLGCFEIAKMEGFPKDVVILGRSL
Summary of the method: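 HEK-293T cells transfected with OGA and Tau-V5 plasmids were treated overnight at 37° C with a 10-point, 3-fold titration from 1 uM. Lysates went onto V5-antibody MSD plates to capture Tau, probed with a Tau O-GlcNAc antibody and read by electrochemiluminescence; IC50 from a 4-parameter fit.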

[2] = Rat Liver Microsome Stability Assay; format: in vitro ADME
P-gp (MDR1) = experiment: MDR1-MDCK Efflux Ratio Assay; format: in vitro ADME; conditions: dog, read-out: MDR1-MDCK Efflux Ratio (B-A/A-B)
Summary of the method: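 Bidirectional (apical↔basolateral) transport across confluent MDR1-MDCK monolayers in HBSS/10 mM HEPES pH 7.4, receiver buffer with 1% BSA; 2 hr at 37° C, 5% CO2. Donor sampled at 0 and 120 min, receiver at 120 min, quantified by LC-MS/MS in triplicate. Papp, efflux ratio and percent recovery calculated.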

[3] = molecular target: Recombinant full length human OGA enzyme (Homo sapiens (Human), UniProt O60502); experiment: OGA Enzyme Inhibition Biochemical Assay; conditions: 1 nM OGA, 100 μM 4-MUGlcNAc, pH 6.4
Recombinant full length human OGA enzyme, sequence (O60502 whole entry): as above
Summary of the method: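 Full-length recombinant human OGA with fluorogenic 4-MUGlcNAc in McIlvaine buffer pH 6.4, 0.01% BSA; 90 min at room temperature, glycine pH 10 quench, fluorescence Ex 355/Em 460 nm. 10-point, 4-fold dilution from 20 μM; 4-parameter variable-slope fit.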

[4] = HEK-293T cells, Tau-S400-GlcNAc MSD readout
[5] = rat liver microsomes, 1 uM compound
[6] = MDCK-MDR1, pH 7.4, MDR1-MDCK cells, 2 hr, pH 7.4
[7] = repeated assay, value marked with asterisk (*)
[8] = MDCK-MDR1, pH 7.4, repeated assay, value marked with asterisk (*)

Row | SMILES | IC50 [1, 4] | RLM % Qh (%) [2, 5] | efflux ratio at 2 h (P-gp (MDR1); [6]) | IC50 [3] | IC50 [1, 7] | RLM % Qh (%) [2, 7] | efflux ratio at 2 h (P-gp (MDR1); [8])
1 | CC(=O)Nc1nc(F)c(CN2C[C@H](Oc3ncccn3)C[C@@H]2C)s1 [Example 1-93, N-(4-fluoro-5-(((2S,4R)-2-methyl-4-(pyrimidin-2-yloxy)pyrrolidin-1-yl)methyl)thiazol-2-yl)acetamide] | 2 nM | 42% | 14.3 | < 1 nM |  |  | 
2 | CC(=O)Nc1nc(F)c(CN2C[C@H](Oc3cnc(C)cn3)C[C@@H]2C)s1 [Example 1-108, N-(4-fluoro-5-(((2S,4R)-2-methyl-4-((5-methylpyrazin-2-yl)oxy)pyrrolidin-1-yl)methyl)thiazol-2-yl)acetamide] | 2 nM | 79% | 3.4 | < 1 nM |  |  | 
3 | COc1cc(O[C@@H]2C[C@H](C)N(Cc3sc(NC(C)=O)nc3Cl)C2)ncn1 [Example 1-46, N-(4-chloro-5-(((2S,4R)-4-((6-methoxypyrimidin-4-yl)oxy)-2-methylpyrrolidin-1-yl)methyl)thiazol-2-yl)acetamide] | 38 nM | 55% | 3.2 | 1 nM |  |  | 
4 | COc1cc(O[C@H]2CCCN(Cc3cnc(NC(C)=O)s3)C2)ncn1 [Example 1-41, (S)—N-(5-((3-((6-methoxypyrimidin-4-yl)oxy)piperidin-1-yl)methyl)thiazol-2-yl)acetamide] | 29 nM | 80% | 4.3 | 24 nM |  |  | 
5 | [2H]C([2H])([2H])C(=O)Nc1ncc(CN2C[C@H](Oc3cc(OC)ncn3)C[C@@H]2C)s1 (single isomer, unassigned) [Example 1-156] | 2 nM | 35% | 5.2 | < 1 nM |  |  | 
6 | CC(=O)Nc1nc(F)c(CN2C[C@H](Oc3cc(C)nc(C)c3)CC[C@@H]2C)s1 [Example 1-57, N-(5-(((2S,5R)-5-((2,6-dimethylpyridin-4-yl)oxy)-2-methylpiperidin-1-yl)methyl)-4-fluorothiazol-2-yl)acetamide] | 3 nM | 93% | 26.4 | < 1 nM |  |  | 
7 | [2H]C([2H])(c1cnc(NC(C)=O)s1)N1C[C@H](Oc2cc(OC)ncn2)C[C@@H]1C (single isomer, unassigned) [Example 1-160] | 3 nM | 29% | 4.6 | < 1 nM |  |  | 
8 | CO[C@H]1C[C@H](Oc2cc(O[C@@H]3C[C@H](C)N(Cc4cnc(NC(C)=O)s4)C3)ncn2)C1 [Example 1-120, N-(5-(((2S,4R)-4-((6-((1r,3R)-3-methoxycyclobutoxy)pyrimidin-4-yl)oxy)-2-methylpyrrolidin-1-yl)methyl)thiazol-2-yl)acetamide] | 2 nM | 64% | 10.3 | < 1 nM |  |  | 
9 | CC(=O)Nc1nc(F)c(CN2C[C@H](Oc3cc(OC4COC4)ncn3)C[C@@H]2C)s1 [Example 1-140, N-(4-fluoro-5-(((2S,4R)-2-methyl-4-((6-(oxetan-3-yloxy)pyrimidin-4-yl)oxy)pyrrolidin-1-yl)methyl)thiazol-2-yl)acetamide] | 4 nM | 43% | 8.4 | < 1 nM |  |  | 
10 | CC(=O)Nc1nc(F)c(CN2C[C@H](Oc3cc(C)nc(C)c3)C[C@H]2C)s1 (stereo in doubt) [Example 1-51, N-(5-(((2R,4R)-4-((2,6-dimethylpyridin-4-yl)oxy)-2-methylpyrrololidin-1-yl)methyl)-4-fluorothiazol-2-yl)acetamide] | 24 nM | 51% | 23.3 | 2 nM |  |  | 
11 | [2H][C@]1(Oc2cc(OC)ncn2)C[C@H](C)N(Cc2cnc(NC(C)=O)s2)C1 [Example 1-164, N-(5-(((2S,4S)-4-((6-methoxypyrimidin-4-yl)oxy)-2-methylpyrrolidin-1-yl-4-d)methyl)thiazol-2-yl)acetamide] | 35 nM | 49% | 3.8 | 9.7 nM |  |  | 
12 | COc1cc(O[C@@H]2CCN(Cc3sc(NC(C)=O)nc3F)C2)ncn1 [Example 1-28, (R)—N-(4-fluoro-5-((3-((6-methoxypyrimidin-4-yl)oxy)pyrrolidin-1-yl)methyl)thiazol-2-yl)acetamide] | 47 nM | 33% | 1.8 | 16 nM |  |  | 
13 | CCC(=O)Nc1nc(F)c(CN2CC[C@@H](Oc3cc(OC)ncn3)C2)s1 [Example 1-45, (R)—N-(4-fluoro-5-((3-((6-methoxypyrimidin-4-yl)oxy)pyrrolidin-1-yl)methyl)thiazol-2-yl)propionamide] | 966 nM | 61% | 1.7 | 47 nM |  |  | 
14 | CC(=O)Nc1nc(F)c(CN2C[C@H](Oc3ccc(Cl)cn3)C[C@@H]2C)s1 [Example 1-90, N-(5-(((2S,4R)-4-((5-chloropyridin-2-yl)oxy)-2-methylpyrrolidin-1-yl)methyl)-4-fluorothiazol-2-yl)acetamide] | < 1 nM | 88% | 1.1 | < 1 nM |  |  | 
15 | COc1cc(O[C@H]2C[C@H](C)N(Cc3cnc(NC(C)=O)s3)C2)ncn1 [Example 1-39, N-(5-(((2S,4S)-4-((6-methoxypyrimidin-4-yl)oxy)-2-methylpyrrolidin-1-yl)methyl)thiazol-2-yl)acetamide] | 30 nM | 57% | 4.5 | 55 nM |  |  | 
16 | COc1cnc(O[C@@H]2C[C@H](C)N(Cc3sc(NC(C)=O)nc3F)C2)cn1 [Example 1-105, N-(4-fluoro-5-(((2S,4R)-4-((5-methoxypyrazin-2-yl)oxy)-2-methylpyrrolidin-1-yl)methyl)thiazol-2-yl)acetamide] | 2 nM | 74% | 2.4 | < 1 nM |  |  | 
17 | COc1cc(O[C@H]2CC[C@H](C)N(Cc3cnc(NC(C)=O)s3)C2)ncn1 [Example 1-43, N-(5-(((2S,5S)-5-((6-methoxypyrimidin-4-yl)oxy)-2-methylpiperidin-1-yl)methyl)thiazol-2-yl)acetamide] | 1 nM | 81% | 6.9 | < 1 nM |  |  | 
18 | CC(=O)Nc1ncc(CN2C[C@H](Oc3cc(C(C)=O)ncn3)C[C@@H]2C)s1 [Example 1-76] | 25 nM | 65% | 6 | 2.6 nM |  |  | 
19 | COc1cncc(O[C@@H]2C[C@H](C)N(Cc3cnc(NC(C)=O)s3)C2)n1 [Example 1-12, N-(5-(((2S,4R)-4-((6-methoxypyrazin-2-yl)oxy)-2-methylpyrrolidin-1-yl)methyl)thiazol-2-yl)acetamide] | 3 nM | 97% | 10 | < 1 nM | 2 nM | 98* % | 8.9
20 | CC(=O)Nc1nc(F)c(CN2C[C@H](Oc3ccnc(C)c3)C[C@@H]2C)s1 [Example 1-110, N-(4-fluoro-5-(((2S,4R)-2-methyl-4-((2-methylpyridin-4-yl)oxy)pyrrolidin-1-yl)methyl)thiazol-2-yl)acetamide] | 1 nM | 39% | 34.4 | < 1 nM |  |  | 
21 | CC(=O)Nc1ncc(CN2C[C@H](Oc3ccc(C#N)cn3)C[C@@H]2C)s1 [Example 1-16, N-(5-(((2S,4R)-4-((5-cyanopyridin-2-yl)oxy)-2-methylpyrrolidin-1-yl)methyl)thiazol-2-yl)acetamide] | 1 nM | 50% | 9.7 | < 1 nM |  | 51* % | 
22 | CC(=O)Nc1ncc(CN2CCC[C@H](Oc3ccc(F)cn3)C2)s1 [Example 1-2, (S)—N-(5-((3-((5-fluoropyridin-2-yl)oxy)piperidin-1-yl)methyl)thiazol-2-yl)acetamide] | 35 nM | 86% | 2.3 | 210 nM |  |  | 2.1
23 | CC(=O)Nc1ncc(CN2C[C@H](Oc3ncc(OC(F)F)cn3)C[C@@H]2C)s1 [Example 1-80, N-(5-(((2S,4R)-4-((5-(difluoromethoxy)pyrimidin-2-yl)oxy)-2-methylpyrrolidin-1-yl)methyl)thiazol-2-yl)acetamide] | < 1 nM | 65% | 18.1 | 1.2 nM |  |  | 
24 | [2H][C@@]1(Oc2cc(OC)ncn2)C[C@H](C)N(Cc2cnc(NC(C)=O)s2)C1 (single isomer, unassigned) [Example 1-163] | 4 nM | 30% | 5.9 | < 1 nM |  |  | 
